Results from patent publication US11459334B2, “Substituted pyrrolo[2,1-f][1,2,4]triazines as KIT and/or PDGFR-α inhibitors” (SHENZHEN TARGETRX, INC., priority 2018, dated 2022).

How the values were obtained:
[1] = molecular target: Ba/F3 Kit D816V (Homo sapiens, UniProt P10721, D816V, cells depend on it); settings: read-out: Cell IC50 (nM) BaF3/Kit(D816V); 72 hours, CTG
[2] = Metabolic stability evaluation, rat liver microsome experiment; type: in vitro ADME; settings: SD, rat liver microsomes, pH 7.4, 1 μM compound, 0.5 mg/mL protein; for microsomal CLint at 1 μM: read-out: CL rat liver microsome experiment; for half-life at 1 μM: read-out: T½ rat liver microsome experiment
Description: (§1) Microsome experiment: human liver microsome: 0.5 mg/mL, Xenotech; rat liver microsome: 0.5 mg/mL, Xenotech; coenzyme (NADPH/NADH): 1 mM, Sigma Life Science; magnesium chloride: 5 mM, 100 mM phosphate buffer (pH 7.4).
(§2) Preparation of stock solution: a certain amount of the example compound powder and control compound powder were accurately weighed, and respectively dissolved to 5 mM with DMSO.
(§3) Preparation of phosphate buffer (100 mM, pH7.4): 150 mL of 0.5M potassium dihydrogen phosphate and 700 mL of 0.5M dipotassium hydrogen phosphate prepared beforehand were mixed, with pH of the mixture adjusted to 7.4 with 0.5M dipotassium hydrogen phosphate solution. Before use, the mixture was diluted by 5 folds with ultrapure water and magnesium chloride was added to obtain the phosphate buffer (100 mM), which contains 100 mM potassium phosphate, 3.3 mM magnesium chloride, and has pH 7.4.
(§4) NADPH regeneration system solution (containing 6.5 mM NADP, 16.5 mM G-6-P, 3 U/mL G-6-P D, 3.3 mM magnesium chloride) was prepared, and placed on wet ice before use.
(§5) Preparation of stop solution: a solution of 50 ng/mL propranolol hydrochloride and 200 ng/mL tolbutamide (internal standard) in acetonitrile. 25057.5 μL of phosphate buffer (pH 7.4) was taken into a 50 mL centrifuge tube, added with 812.5 μL of human liver microsome, and mixed well to obtain a liver microsome diluent with a protein concentration of 0.625 mg/mL. 25057.5 μL of phosphate buffer (pH 7.4) was taken into a 50 mL centrifuge tube, added with 812.5 μL of SD rat liver microsome, and mixed well to obtain a liver microsome diluent with a protein concentration of 0.625 mg/mL.
(§6) Incubation of the samples: the stock solutions of the corresponding compounds were respectively diluted to 0.25 mM with an aqueous solution containing 70% acetonitrile to obtain working solutions for later use. 398 μL of human liver microsome and rat liver microsome diluents were respectively taken and added to a 96-well incubation plate (N=2), added with 2 μL of 0.25 mM working solution respectively, and mixed well.
(§7) Determination of metabolic stability: 300 μL of pre-cooled stop solution was added to each well of a 96-well deep-well plate, and the plate was placed on ice as a stop plate. The 96-well incubation plate and the NADPH regeneration system were placed in a 37° C. water bath, shaken at 100 rpm, and pre-incubated for 5 minutes. 80 μL of incubation solution was taken out of each well of the incubation plate and added to the stop plate, mixed well, and supplemented with 20 μL of NADPH regeneration system solution to obtain the 0 min sample. Then 80 μL of NADPH regeneration system solution was added to each well of the incubation plate to initiate the reaction and start timing. The reaction concentration of the corresponding compound was 1 μM, and the protein concentration was 0.5 mg/mL. At 10, 30, and 90 minutes of reaction, 100 μL of the reaction solution was taken and added to the stop plate, and vortexed for 3 minutes to stop the reaction. The stop plate was centrifuged at 5000×g for 10 min at 4° C. 100 μL of supernatant was taken to a 96-well plate pre-added with 100 μL of distilled water, mixed well, and subjected to sample analysis by LC-MS/MS.
(§8) Data analysis: the peak areas of the corresponding compound and internal standard were detected through the LC-MS/MS system, and the ratio of the peak area of the compound to the internal standard was calculated.

[3] = Metabolic stability evaluation, human liver microsome experiment; type: in vitro ADME; settings: human liver microsomes, pH 7.4, 1 μM compound, 0.5 mg/mL protein; for microsomal CLint at 1 μM: read-out: CL human liver microsome experiment; for half-life at 1 μM: read-out: T½ human liver microsome experiment
Description: as §1, §2, §3, §4, §5, §6, §7, §8

Row | SMILES | GI50 [1] | microsomal CLint at 1 μM [2] | half-life at 1 μM [2] | microsomal CLint at 1 μM [3] | half-life at 1 μM [3]
1 | [2H]C([2H])([2H])n1cc(-c2cc3c(N4C([2H])([2H])C([2H])([2H])N(c5ncc([C@@](C)(N)c6ccc(F)cc6)cn5)C([2H])([2H])C4([2H])[2H])ncnn3c2)cn1 [Compound T-5-S, (S)-1-(4-fluorophenyl)-1-(2-(4-(6-(1-(methyl-d3)-1H-pyrazol-4-yl)pyrrolo[2,1-f][1,2,4]triazin-4-yl)piperazin-1-yl-2,2,3,3,5,5,6,6-d8)pyrimidin-5-yl)ethylamine] | 1 to 50 nM |  |  |  | 
2 | [2H]C([2H])([2H])n1cc(-c2cc3c(N4CCN(c5ncc([C@@](N)(c6ccc(F)cc6)C([2H])([2H])[2H])cn5)CC4)ncnn3c2)cn1 [Compound T-3-S, (S)-1-(4-fluorophenyl)-1-(2-(4-(6-(1-(methyl-d3)-1H-pyrazol-4-yl)pyrrolo[2,1-f][1,2,4]triazin-4-yl)piperazin-1-yl)pyrimidin-5-yl)ethan-2,2,2-d3-1-amine] | 1 to 50 nM | 15.6 µL/min/mg | 89.1 min | 13 µL/min/mg | 107 min
3 | [2H]C([2H])([2H])n1cc(-c2cc3c(N4CCN(c5ncc([C@@](C)(N)c6ccc(F)cc6)cn5)CC4)ncnn3c2)cn1 [Compound T-1-S, (S)-1-(4-fluorophenyl)-1-(2-(4-(6-(1-(methyl-d3)-1H-pyrazol-4-yl)pyrrolo[2,1-f][1,2,4]triazin-4-yl)piperazin-1-yl)pyrimidin-5-yl)ethylamine] | 1 to 50 nM |  |  | 15.6 µL/min/mg | 88.6 min
4 | [2H]C([2H])([2H])n1cc(-c2cc3c(N4C([2H])([2H])C([2H])([2H])N(c5ncc([C@@](N)(c6ccc(F)cc6)C([2H])([2H])[2H])cn5)C([2H])([2H])C4([2H])[2H])ncnn3c2)cn1 [Compound T-7-S, (S)-1-(4-fluorophenyl)-1-(2-(4-(6-(1-(methyl-d3)-1H-pyrazol-4-yl)pyrrolo[2,1-f][1,2,4]triazin-4-yl)piperazin-1-yl-2,2,3,3,5,5,6,6-d8)pyrimidin-5-yl)ethan-2,2,2-d3-1-amine] | 1 to 50 nM |  |  |  | 
5 | [2H]C1([2H])N(c2ncc([C@@](N)(c3ccc(F)cc3)C([2H])([2H])[2H])cn2)C([2H])([2H])C([2H])([2H])N(c2ncnn3cc(-c4cnn(C)c4)cc23)C1([2H])[2H] [Compound T-6-S, (S)-1-(4-fluorophenyl)-1-(2-(4-(6-(1-methyl-1H-pyrazol-4-yl)pyrrolo[2,1-f][1,2,4]triazin-4-yl)piperazin-1-yl-2,2,3,3,5,5,6,6-d8)pyrimidin-5-yl)ethan-2,2,2-d3-1-amine] | 1 to 50 nM | 15.5 µL/min/mg | 89.4 min | 13.1 µL/min/mg | 105 min
6 | [2H]C1([2H])N(c2ncc([C@](N)(c3ccc(F)cc3)C([2H])([2H])[2H])cn2)C([2H])([2H])C([2H])([2H])N(c2ncnn3cc(-c4cnn(C)c4)cc23)C1([2H])[2H] [Compound T-6-R, (R)-1-(4-fluorophenyl)-1-(2-(4-(6-(1-methyl-1H-pyrazol-4-yl)pyrrolo[2,1-f][1,2,4]triazin-4-yl)piperazin-1-yl-2,2,3,3,5,5,6,6-d8)pyrimidin-5-yl)ethan-2,2,2-d3-1-amine] |  | 38.6 µL/min/mg | 35.9 min | 24.2 µL/min/mg | 57.3 min
7 | [2H]C1([2H])N(c2ncc([C@@](C)(N)c3ccc(F)cc3)cn2)C([2H])([2H])C([2H])([2H])N(c2ncnn3cc(-c4cnn(C)c4)cc23)C1([2H])[2H] [Compound T-4-S, (S)-1-(4-fluorophenyl)-1-(2-(4-(6-(1-methyl-1H-pyrazol-4-yl)pyrrolo[2,1-f][1,2,4]triazin-4-yl)piperazin-1-yl-2,2,3,3,5,5,6,6-d8)pyrimidin-5-yl)ethylamine] | 1 to 50 nM | 17.1 µL/min/mg | 81.1 min | 15.3 µL/min/mg | 90.5 min
8 | Cn1cc(-c2cc3c(N4CCN(c5ncc([C@@](C)(N)c6ccc(F)cc6)cn5)CC4)ncnn3c2)cn1 [Avapritinib, (S)-1-(4-fluorophenyl)-1-(2-(4-(6-(1-methyl-1H-pyrazol-4-yl)pyrrolo[2,1-f][1,2,4]triazin-4-yl)piperazin-1-yl)pyrimidin-5-yl)ethylamine, reference compound] | 1 to 50 nM | 24.6 µL/min/mg | 56.3 min | 15.8 µL/min/mg | 87.6 min
9 | [2H]C([2H])([2H])n1cc(-c2cc3c(N4CCN(c5ncc([C@](N)(c6ccc(F)cc6)C([2H])([2H])[2H])cn5)CC4)ncnn3c2)cn1 [Compound T-3-R, (R)-1-(4-fluorophenyl)-1-(2-(4-(6-(1-(methyl-d3)-1H-pyrazol-4-yl)pyrrolo[2,1-f][1,2,4]triazin-4-yl)piperazin-1-yl)pyrimidin-5-yl)ethan-2,2,2-d3-1-amine] |  | 37.2 µL/min/mg | 37.3 min | 27 µL/min/mg | 51.3 min
10 | [2H]C1([2H])N(c2ncc([C@](C)(N)c3ccc(F)cc3)cn2)C([2H])([2H])C([2H])([2H])N(c2ncnn3cc(-c4cnn(C)c4)cc23)C1([2H])[2H] [Compound T-4-R, (R)-1-(4-fluorophenyl)-1-(2-(4-(6-(1-methyl-1H-pyrazol-4-yl)pyrrolo[2,1-f][1,2,4]triazin-4-yl)piperazin-1-yl-2,2,3,3,5,5,6,6-d8)pyrimidin-5-yl)ethylamine] |  | 27 µL/min/mg | 51.4 min | 26 µL/min/mg | 53.3 min
11 | Cn1cc(-c2cc3c(N4CCN(c5ncc([C@](C)(N)c6ccc(F)cc6)cn5)CC4)ncnn3c2)cn1 [Compound A, (R)-1-(4-fluorophenyl)-1-(2-(4-(6-(1-methyl-1H-pyrazol-4-yl)pyrrolo[2,1-f][1,2,4]triazin-4-yl)piperazin-1-yl)pyrimidin-5-yl)ethan-1-amine, reference compound] |  | 41.5 µL/min/mg | 33.4 min | 28.8 µL/min/mg | 48.1 min
12 | [2H]C([2H])([2H])[C@](N)(c1ccc(F)cc1)c1cnc(N2CCN(c3ncnn4cc(-c5cnn(C)c5)cc34)CC2)nc1 [Compound T-2-S, (S)-1-(4-fluorophenyl)-1-(2-(4-(6-(1-methyl-1H-pyrazol-4-yl)pyrrolo[2,1-f][1,2,4]triazin-4-yl)piperazin-1-yl)pyrimidin-5-yl)ethan-2,2,2-d3-1-amine] | 1 to 50 nM |  |  |  | 
